Entries after “also recorded” stand apart in the source; their conditions may differ.
Test system: NCOA7
Format: cell-based, human
Details: ECs, FIGS. 3A-3B

Structure (SMILES): N#CCNC(=O)c1ccc(-c2ccnc(Nc3ccc(N4CCOCC4)cc3)n2)cc1 [momelotinib, Momelotinib]
- NCOA7 expression (IL-1β-mediated upregulation of NCOA7): abrogated the IL-1β-mediated upregulation of NCOA7; also recorded: attenuates NCOA7 expression

Reference: patent US11773391B2, “Therapeutic and diagnostic target for SARS-CoV-2 and COVID-19” (priority 2020, dated 2023)
